We go through 36 molecules from patent publication US11633394B2, “Substituted alkynylene compounds as anticancer agents” (Aurigene Oncology Limited, priority 2018, dated 2023).

One data set deals with NCI-H1792 cells. The data set is described as follows: Anti proliferative activity in NCI-H1792 cells by XTT assay. Type of data set: cell-based. The following applies: H1792 cell line; for IC50: 72 hours incubation; for viability at 30 µM / % Viability (at 30 μM): 72 hours. The protocol:
Example 78: Determination of Anti Proliferative Activity in NCI-H1792 Cells by XTT Assay
NCI-H1792 cells (ATCC CRL-5895) were plated at 2000 cells/well in 96 well flat clear bottom plates (Corning, Cat. No 3596) using complete RPMI media. After 24 hours, compounds of present invention were added to cells from 20 mM stocks made in DMSO (Sigma Cat no. D2650). Each concentration of compound was tested in triplicate with DMSO concentration not exceeding a final percentage of 0.3 in the cells. After 72 hours of incubation in CO2 incubator, XTT (Invitrogen, Cat. no X6493) was added to the wells. XTT was dissolved in serum free media at 1 mg/ml and absorbance readings were taken in spectrophotometer at 465 nm. The data was analysed using graph pad prism software. Positive control (100% survival)=Cells in complete media with 0.3% DMSO; Negative control/blank (0% survival)=Media alone containing 0.3% DMSO.
(§1) The compounds of the present invention were screened in the above mentioned assay and the results are tabulated below.

In another data set the test system is NCI-H2122 cells. The data set is described as follows: Anti proliferative activity in NCI-H2122 cells by XTT assay. Type of data set: cell-based. The following applies: H2122 cell line; for IC50: 8 days (192 hour) incubation; for viability at 30 µM: 8 days. The protocol: Example 79: Determination of Anti Proliferative Activity in NCI-H2122 Cells by XTT Assay
NCI-H2122 cells (ATCC CRL-5985) were plated at 1000 cells/well in 96 well flat clear bottom plates (Corning, Cat. No 3596) using complete RPMI-1640 media. After 24 hours, compounds of present invention were added to cells from 10 mM stocks made in DMSO (Sigma Cat no. D2650). Each concentration of compound was tested in triplicate with DMSO concentration not exceeding a final percentage of 0.3 in the cells. Complete RPMI-1640 media changed at Day 3 (72 hour) and Day 6 (144 hour) along with compounds of current invention. After 8 days (192 hour) of incubation assay terminated using 50 μl of XTT reagent (Invitrogen, Cat. no X6493). XTT reagent was made by dissolving 1 mg/mi XTT in serum free media with addition of 25 μM Phenazine methosulfate (sigma Cat. no P9625). Absorbance readings were taken in spectrophotometer at 465 nm. The data was analysed using graph pad prism software. Positive control (100% survival)=Cells in complete media with 0.3% DMSO; Negative control/blank (0% survival)=Media alone containing 0.3% DMSO.
as §1
For orientation: Formazan colour is commonly taken as a measure of viable cells.

The structures appear in SMILES notation.

What is called IC50 is the concentration that gives 50% inhibition. Read a high IC50 as a need for much substance. For orientation: viability means a per cent measure of how many cells are alive, often set against a control. A low value points to more harm to the cells. Take `C=CC(=O)N1CCN(C(=O)NC(C)C#Cc2ccc(Cl)c(Cl)c2)CC1` (racemic) [Example 1, 4-acryloyl-N-(4-(3,4-dichlorophenyl)but-3-yn-2-yl) piperazine-1-carboxamide]: in the data set on NCI-H1792 cells (Homo sapiens, NCI-H1792, 72 h), the IC50 was < 10 µM and the viability at 30 µM worked out at 40%.
With `C=CC(=O)N1CCN(C(=O)NC(C#Cc2ccc(Cl)c(Cl)c2)CC)CC1` (racemic) [Example 2, 4-acryloyl-N-(1-(3,4-dichlorophenyl)pent-1-yn-3-yl)piperazine-1-carboxamide], in the data set on NCI-H1792 cells (Homo sapiens, NCI-H1792, 72 h), the IC50 is < 10 µM and the viability at 30 µM amounted to 22%.
For the molecule `C=CC(=O)N1CCN(C(=O)NC(C)C#Cc2ccc(Cl)c(NC(C)=O)c2)CC1` (racemic) [Example 40, N-(4-(3-acetamido-4-chlorophenyl)but-3-yn-2-yl)-4-acryloylpiperazine-1-carboxamide], the half-maximal inhibitory concentration (IC50) in the data set on NCI-H2122 cells (Homo sapiens, NCI-H2122, 192 h) is 10 to 25 µM.
As to `C=C(C)C(=O)N1CCN(C(=O)NC(C)C#Cc2ccc(Cl)c(Cl)c2)CC1` (racemic) [Example 43, N-(4-(3,4-dichlorophenyl)but-3-yn-2-yl)-4-methacryloylpiperazine-1-carboxamide], in the data set with NCI-H2122 cells (Homo sapiens, NCI-H2122, 192 h), the IC50 is > 25 µM and the viability at 30 µM came to 78%.
The matching figures for `CC(C#Cc1ccc(Cl)c(Cl)c1)NC(=O)N1CCN(C(=O)C2(C#N)CC2)CC1` (racemic) [Example 44, 4-(1-cyanocyclopropane-1-carbonyl)-N-(4-(3,4-dichlorophenyl)but-3-yn-2-yl) piperazine-1-carboxamide]: > 25 µM and 99%.
For `CC(C#Cc1ccc(Cl)c(Cl)c1)NC(=O)N1CCN(C(=O)/C=C/CN(C)C)CC1` (racemic) [Example 47, (E)-N-(4-(3,4-dichlorophenyl)but-3-yn-2-yl)-4-(4-(dimethylamino)but-2-enoyl) piperazine-1-carboxamide], in the data set on NCI-H1792 cells (Homo sapiens, NCI-H1792, 72 h), the half-maximal inhibitory concentration (IC50) is < 10 µM and the viability at 30 µM turned out to be 26%.
In the data set on NCI-H1792 cells (Homo sapiens, NCI-H1792, 72 h), `C=CS(=O)(=O)NC1CCN(C(=O)NC(C)C#Cc2ccc(Cl)c(Cl)c2)CC1` (racemic) [Example 49, N-(4-(3,4-dichlorophenyl)but-3-yn-2-yl)-4-(vinylsulfonamido) piperidine-1-carboxamide] showed a concentration for half-maximal inhibition (IC50) of 10 to 25 µM and a viability at 30 µM of 35%.
As to `CC(C#Cc1ccc(Cl)c(Cl)c1)NC(=O)N1CCN(C(=O)/C=C/C(N)=O)CC1` (racemic) [Example 65, (E)-4-(4-amino-4-oxobut-2-enoyl)-N-(4-(3,4-dichlorophenyl)but-3-yn-2-yl) piperazine-1-carboxamide], in the data set with NCI-H1792 cells (Homo sapiens, NCI-H1792, 72 h), the IC50 is > 25 µM and the viability at 30 µM worked out at 73%.
In the case of `C=CC(=O)N1CCN(C(=S)NC(C)C#Cc2ccc(Cl)c(Cl)c2)CC1` (racemic) [Example 69, 4-Acryloyl-N-(4-(3,4-dichlorophenyl)but-3-yn-2-yl) piperazine-1-carbothioamide], in the data set on NCI-H1792 cells (Homo sapiens, NCI-H1792, 72 h), the IC50 lay within 10 to 25 µM and the viability at 30 µM is 18%.
Taken in the same sequence, the figures for `C=CS(=O)(=O)N[C@H]1CC[C@H](C(=O)NC(C)C#Cc2ccc(Cl)c(Cl)c2)CC1` (mixture of isomers) [Example 75, (1r,4r)-N-(4-(3,4-dichlorophenyl)but-3-yn-2-yl)-4-(vinylsulfonamido) cyclohexane-1-carboxamide] were < 10 µM and 10%.
Take `C=CC(=O)Nc1ccc(C(=O)NC(C)C#Cc2ccc(Cl)c(Cl)c2)cc1` (racemic) [Example 76, 4-acrylamido-N-(4-(3,4-dichlorophenyl)but-3-yn-2-yl)benzamide]: in the data set with NCI-H1792 cells (Homo sapiens, NCI-H1792, 72 h), the half-maximal inhibitory concentration (IC50) was < 10 µM and the viability at 30 µM worked out at 26%.
For `CC(C#Cc1ccc(Cl)c(Cl)c1)NC(=O)N1CCN(C(=O)C2CC(Br)=NO2)CC1` (racemic) [Example 77, 4-(3-bromo-4,5-dihydroisoxazole-5-carbonyl)-N-(4-(3,4-dichlorophenyl)but-3-yn-2-yl)piperazine-1-carboxamide(±)], in the data set with NCI-H2122 cells (Homo sapiens, NCI-H2122, 192 h), the IC50 lay in the range of 10 to 25 µM.
For `C=CC(=O)N1CCN(C(=O)NC(C)C#Cc2ccc(Cl)c(Cl)c2)CC1` (single isomer, unassigned) [Example 1b, 4-acryloyl-N-(4-(3,4-dichlorophenyl)but-3-yn-2-yl) piperazine-1-carboxamide], in the data set on NCI-H1792 cells, the IC50 was in the range of 10 to 25 µM and the “% Viability (at 30 μM)” value was 37%.
For `C=CC(=O)N1CCN(C(=O)NC(C#Cc2ccc(Cl)c(Cl)c2)CC)CC1` (single isomer, unassigned) [Example 2a], in the data set with NCI-H1792 cells, the IC50 was > 25 µM and the “% Viability (at 30 μM)” value was 56%.
In the data set with NCI-H1792 cells, `C=CC(=O)N1CCN(C(=O)NC(C#Cc2ccc(Cl)c(Cl)c2)CC)CC1` (single isomer, unassigned) [Example 2b] displayed an IC50 of 10 to 25 µM. The viability at 30 µM with NCI-H1792 cells (Homo sapiens, NCI-H1792, 72 h) is 57%.
Consider `C=CC(=O)N(C)[C@@H]1CCCC[C@H]1N(C)C(=O)NC(C)C#Cc1ccc(Cl)c(Cl)c1` (single isomer, unassigned) [Example 48a], for which the IC50 in the data set with NCI-H2122 cells was > 25 µM.
With `C=CC(=O)N(C)[C@@H]1CCCC[C@H]1N(C)C(=O)NC(C)C#Cc1ccc(Cl)c(Cl)c1` (single isomer, unassigned) [Example 48b], in the data set with NCI-H2122 cells, the IC50 is 10 to 25 µM.
For the molecule `C=CC(=O)N1CCN(C(=O)NC(C#Cc2ccc(Cl)c(Cl)c2)C(C)C)CC1` (centres unmarked) [Example 4], in the data set with NCI-H1792 cells (Homo sapiens, NCI-H1792, 72 h), the IC50 was in the range of 10 to 25 µM and the viability at 30 µM amounted to 15%.
Taken in the same sequence, the figures for `C=CC(=O)N1CCN(C(=O)NC(C)C#Cc2ccc(C(F)(F)F)c(Cl)c2)CC1` (centres unmarked) [Example 6] were 10 to 25 µM and 19%.
Taken in the same sequence, the figures for `C=CC(=O)N1CCN(C(=O)NC(C)C#Cc2ccc(C)c(Cl)c2)CC1` (centres unmarked) [Example 7] were 10 to 25 µM and 33%.
For the molecule `C=CC(=O)N1CC(N2CCN(C(=O)NC(C)C#Cc3ccc(Cl)c(Cl)c3)CC2)C1` (centres unmarked) [Example 8], in the data set on NCI-H1792 cells (Homo sapiens, NCI-H1792, 72 h), the IC50 was < 10 µM and the viability at 30 µM worked out at 35%.
As to `C=CC(=O)N1CCN(C(=O)NC(C)C#Cc2ccc3ccccc3c2)CC1` (centres unmarked) [Example 9], in the data set on NCI-H1792 cells (Homo sapiens, NCI-H1792, 72 h), the half-maximal inhibitory concentration (IC50) is > 25 µM and the viability at 30 µM was 47%.
The matching figures for `C=CC(=O)N1CCN(C(=O)NC(C)C#Cc2ccc3[nH]ncc3c2)CC1` (centres unmarked) [Example 10]: > 25 µM and 89%.
For the molecule `C=CC(=O)N1CCN(C(=O)NC(C)C#Cc2cccc3c2cnn3C)CC1` (centres unmarked) [Example 11], in the data set on NCI-H1792 cells (Homo sapiens, NCI-H1792, 72 h), the IC50 was > 25 µM and the viability at 30 µM was 91%.
The matching figures for `C=CC(=O)NC1CCN(C(=O)NC(C)C#Cc2ccc(Cl)c(Cl)c2)CC1` (centres unmarked) [Example 12]: > 25 µM and 83%.
For `CC(C#Cc1ccc(Cl)c(Cl)c1)NC(=O)N1CCN(C(=O)/C=C/c2ccccc2)CC1` (centres unmarked) [Example 13], in the data set with NCI-H1792 cells (Homo sapiens, NCI-H1792, 72 h), the IC50 is > 25 µM.
On the same count and under the same terms, then `C/C=C/C(=O)N1CCN(C(=O)NC(C)C#Cc2ccc(Cl)c(Cl)c2)CC1` (centres unmarked) [Example 14], with > 25 µM.
In the case of `CC(C)=CC(=O)N1CCN(C(=O)NC(C)C#Cc2ccc(Cl)c(Cl)c2)CC1` (centres unmarked) [Example 15], in the data set on NCI-H1792 cells (Homo sapiens, NCI-H1792, 72 h), the IC50 is > 25 µM and the viability at 30 µM was 90%.
In the data set with NCI-H1792 cells (Homo sapiens, NCI-H1792, 72 h), `CC(C#Cc1ccc(Cl)c(Cl)c1)NC(=O)N1CCN(C(=O)C(C)Cl)CC1` (centres unmarked) [Example 16] gave an IC50 of 10 to 25 µM and a viability at 30 µM of 3%.
Consider `C=CC(=O)N1CCN(C(=O)NC(C)C#Cc2ccc(Cl)s2)CC1` (centres unmarked) [Example 17], for which, in the data set with NCI-H2122 cells (Homo sapiens, NCI-H2122, 192 h), the IC50 lay within 10 to 25 µM and the viability at 30 µM stood at 19%.
For `CC(C#Cc1ccc(Cl)c(Cl)c1)NC(=O)N1CCN(C(=O)CCl)CC1` (centres unmarked) [Example 19], the concentration for half-maximal inhibition (IC50) in the data set with NCI-H1792 cells (Homo sapiens, NCI-H1792, 72 h) was < 10 µM.
Take `C=CC(=O)NC1CC2CC1CN2C(=O)NC(C)C#Cc1ccc(Cl)c(Cl)c1` (centres unmarked) [Example 55]: in the data set with NCI-H1792 cells (Homo sapiens, NCI-H1792, 72 h), the IC50 was > 25 µM and the viability at 30 µM stood at 100%.
Taken in the same sequence, the figures for `C=CS(=O)(=O)NC1CC2CC1CN2C(=O)NC(C)C#Cc1ccc(Cl)c(Cl)c1` (centres unmarked) [Example 56] were 10 to 25 µM and 39%.
The matching figures for `CCOC(=O)/C=C/C(=O)N1CCN(C(=O)NC(C)C#Cc2ccc(Cl)c(Cl)c2)CC1` (centres unmarked) [Example 57]: < 10 µM and 17%.
The matching figures for `C=CC(=O)N1CCC(C(=O)NC(C)C#Cc2ccc(Cl)c(Cl)c2)CC1` (centres unmarked) [Example 70]: < 10 µM and 33%.
With `C=CC(=O)N[C@H]1CC[C@H](C(=O)NC(C)C#Cc2ccc(Cl)c(Cl)c2)CC1` (some centres unmarked) [Example 73], in the data set on NCI-H1792 cells (Homo sapiens, NCI-H1792, 72 h), the IC50 is > 25 µM and the viability at 30 µM was found to be 64%.
